Results taken from ChEMBL document CHEMBL6127050, “Simultaneous inhibition of FLT3 and HDAC by novel 6-ethylpyrazine-2-Carboxamide derivatives provides therapeutic advantages in acute myelocytic leukemia” (Eur J Med Chem, 2024).
Active and inactive are the calls of the source. The rule behind the calls is not given here.

Key:
[1] = Toxicity in NOD/SCID mouse xenografted with human MOLM-13 cells assessed as increase in survival rate at 15 mg/kg, IG administered 5 days per week in presence of vorinostat by Kaplan Mayer survival analysis; assay type: organism-based; conditions: in vivo, po, 120 h, time 5 day
MOLM-13 [2] = assay: Antiproliferative activity against human MOLM-13 cells incubated for 48 hrs; conditions: MOLM-13, 48 h
KG-1 = assay: Antiproliferative activity against human KG-1 cells incubated for 48 hrs; conditions: KG-1, 48 h
THP-1 = assay: Antiproliferative activity against human THP-1 cells incubated for 48 hrs; conditions: THP-1, 48 h
K562 = assay: Antiproliferative activity against human K562 cells incubated for 48 hrs; conditions: K562, 48 h
[3] = Cytotoxicity against HEK293T cells incubated for 48 hrs; assay type: toxicity, cell-based, HEK-293T; conditions: human
MOLM-13 [4] = assay: Induction of apoptosis in human MOLM-13 cells assessed as viable cells at 0.1 uM incubated for 48 hrs by Annexin V-FITC staining based flow cytometry analysis (reference value: 94.5 %); assay type: functional
MOLM-13 [5] = assay: Induction of apoptosis in human MOLM-13 cells assessed as early apoptotic cells at 0.1 uM incubated for 48 hrs by Annexin V-FITC staining based flow cytometry analysis (reference value: 4.07 %); assay type: functional
MOLM-13 [6] = assay: Induction of apoptosis in human MOLM-13 cells assessed as late apoptotic cells at 0.1 uM incubated for 48 hrs by Annexin V-FITC staining based flow cytometry analysis (reference value: 1.40 %); assay type: functional
MOLM-13 [7] = assay: Induction of apoptosis in human MOLM-13 cells assessed as necrotic at 0.1 uM incubated for 48 hrs by Annexin V-FITC staining based flow cytometry analysis (reference value: 0.013 %); assay type: functional
MOLM-13 [8] = assay: Induction of apoptosis in human MOLM-13 cells assessed as viable cells at 0.1 uM incubated for 48 hrs in presence of vorinostat by Annexin V-FITC staining based flow cytometry analysis (reference value: 94.5 %); assay type: functional; conditions: read-out: Activity
MOLM-13 [9] = assay: Induction of apoptosis in human MOLM-13 cells assessed as early apoptotic cells at 0.1 uM incubated for 48 hrs in presence of vorinostat by Annexin V-FITC staining based flow cytometry analysis (reference value: 4.07 %); assay type: functional
MOLM-13 [10] = assay: Induction of apoptosis in human MOLM-13 cells assessed as late apoptotic cells at 0.1 uM incubated for 48 hrs in presence of vorinostat by Annexin V-FITC staining based flow cytometry analysis (reference value: 1.40 %); assay type: functional
MOLM-13 [11] = assay: Induction of apoptosis in human MOLM-13 cells assessed as necrotic cells at 0.1 uM incubated for 48 hrs in presence of vorinostat by Annexin V-FITC staining based flow cytometry analysis (reference value: 0.013 %); assay type: functional
MOLM-13 [12] = assay: Induction of cell cycle arrest in human MOLM-13 cells assessed as accumulation of cells at G0/G1 phase at 0.05 uM measured for 48 hrs by PI/RNase staining based flow cytometric analysis (reference value: 46.24 %); assay type: functional
MOLM-13 [13] = assay: Induction of cell cycle arrest in human MOLM-13 cells assessed as accumulation of cells at G2M phase at 0.05 uM measured for 48 hrs by PI/RNase staining based flow cytometric analysis (reference value: 10.81%); assay type: functional
MOLM-13 [14] = assay: Induction of cell cycle arrest in human MOLM-13 cells assessed as accumulation of cells at S-phase at 0.05 uM measured for 48 hrs by PI/RNase staining based flow cytometric analysis (reference value: 42.95%); assay type: functional
MOLM-13 [15] = assay: Induction of cell cycle arrest in human MOLM-13 cells assessed as accumulation of cells at G0/G1 phase at 0.05 uM measured for 48 hrs in presence of vorinostat by PI/RNase staining based flow cytometric analysis (reference value: 46.24 %); assay type: functional
MOLM-13 [16] = assay: Induction of cell cycle arrest in human MOLM-13 cells assessed as accumulation of cells at G2M phase at 0.05 uM measured for 48 hrs in presence of vorinostat by PI/RNase staining based flow cytometric analysis (reference value: 10.81%); assay type: functional
MOLM-13 [17] = assay: Induction of cell cycle arrest in human MOLM-13 cells assessed as accumulation of cells at S-phase at 0.05 uM measured for 48 hrs in presence of vorinostat by PI/RNase staining based flow cytometric analysis (reference value: 42.95%); assay type: functional
MOLM-13 [18] = assay: Antitumor activity against human MOLM-13 cells xenografted BALB/c mouse assessed as reduction in tumor volume at 10 mg/kg, IG qd administered 5 days a week and measured on day 9 in presence of vorinostat; assay type: functional, organism-based; conditions: time 9.0 day
MOLM-13 [19] = assay: Antitumor activity against human MOLM-13 cells xenografted BALB/c mouse assessed as tumor growth inhibition at 10 mg/kg, IG qd administered 5 days a week and measured on day 9 in presence of vorinostat; assay type: functional; conditions: MOLM-13, po, 216 h, time 9 day, read-out: TGI
[20] = Toxicity in BALB/c mouse xenografted with human MOLM-13 cells assessed as body weight loss at 10 mg/kg, IG qd administered 5 days a week and measured on day 9 in presence of vorinostat; assay type: organism-based; conditions: in vivo, po, 216 h, time 9 day
[21] = Toxicity in BALB/c mouse xenografted with human MOLM-13 cells assessed as lung damage at 10 mg/kg, IG qd administered 5 days a week and measured on day 9 in presence of vorinostat by H and E staining based analysis; assay type: organism-based; conditions: in vivo, po, 216 h, time 9 day
[22] = Toxicity in NOD/SCID mouse xenografted with human MOLM-13 cells assessed as increase in survival rate at 60 mg/kg, IG administered 5 days per week in presence of gilteritinib by Kaplan Mayer survival analysis; assay type: organism-based; conditions: in vivo, po, 120 h, time 5 day
MOLM-13 [23] = assay: Induction of apoptosis in human MOLM-13 cells assessed as viable cells at 0.1 uM incubated for 48 hrs in presence of gilteritinib by Annexin V-FITC staining based flow cytometry analysis (reference value: 94.5 %); assay type: functional
MOLM-13 [24] = assay: Induction of apoptosis in human MOLM-13 cells assessed as early apoptotic cells at 0.1 uM incubated for 48 hrs in presence of gilteritinib by Annexin V-FITC staining based flow cytometry analysis (reference value: 4.07 %); assay type: functional
MOLM-13 [25] = assay: Induction of apoptosis in human MOLM-13 cells assessed as late apoptotic cells at 0.1 uM incubated for 48 hrs in presence of gilteritinib by Annexin V-FITC staining based flow cytometry analysis (reference value: 1.40 %); assay type: functional
MOLM-13 [26] = assay: Induction of apoptosis in human MOLM-13 cells assessed as necrotic cells at 0.1 uM incubated for 48 hrs in presence of gilteritinib by Annexin V-FITC staining based flow cytometry analysis (reference value: 0.013 %); assay type: functional
MOLM-13 [27] = assay: Induction of cell cycle arrest in human MOLM-13 cells assessed as accumulation of cells at G0/G1 phase at 0.05 uM measured for 48 hrs in presence of gilteritinib by PI/RNase staining based flow cytometric analysis (reference value: 46.24 %); assay type: functional
MOLM-13 [28] = assay: Induction of cell cycle arrest in human MOLM-13 cells assessed as accumulation of cells at G2M phase at 0.05 uM measured for 48 hrs in presence of gilteritinib by PI/RNase staining based flow cytometric analysis (reference value: 10.81%); assay type: functional
MOLM-13 [29] = assay: Induction of cell cycle arrest in human MOLM-13 cells assessed as accumulation of cells at S-phase at 0.05 uM measured for 48 hrs in presence of gilteritinib by PI/RNase staining based flow cytometric analysis (reference value: 42.95%); assay type: functional
[30] = Toxicity in BALB/c mouse xenografted with human MOLM-13 cells assessed as body weight loss at 30 mg/kg, IG qd administered 5 days a week and measured on day 9 in presence of gilteritinib; assay type: organism-based; conditions: in vivo, po, 216 h, time 9 day
[31] = Toxicity in BALB/c mouse xenografted with human MOLM-13 cells assessed as lung damage at 30 mg/kg, IG qd administered 5 days a week and measured on day 9 in presence of gilteritinib by H and E staining based analysis; assay type: organism-based; conditions: in vivo, po, 216 h, time 9 day

CCc1nc(C(N)=O)c(Nc2ccc(N3CCC(N4CCN(C)CC4)CC3)c(OC)c2)nc1NC1CCOCC1 [GILTERITINIB]
Activity [1]: Non-Toxic | IC50 (MOLM-13 [2]): 12 nM | IC50 (KG-1): 620 nM | IC50 (THP-1): 850 nM | IC50 (K562): 990 nM | IC50 at 48 h [3]: 970 nM | viability at 0.1 µM (MOLM-13 [4]; Homo sapiens, MOLM-13, read-out: Activity): 53.5% | Activity (MOLM-13 [5]): 33.5% | Activity (MOLM-13 [6]): 12.7% | Activity (MOLM-13 [7]): 0.36% | viability at 0.1 µM (MOLM-13 [8]): 46.8% | Activity (MOLM-13 [9]): 35% | Activity (MOLM-13 [10]): 17.4% | Activity (MOLM-13 [11]): 0.88% | Activity (MOLM-13 [12]): 50% | Activity (MOLM-13 [13]): 5.53% | Activity (MOLM-13 [14]): 44.47% | Activity (MOLM-13 [15]): 64.51% | Activity (MOLM-13 [16]): 7.24% | Activity (MOLM-13 [17]): 28.26% | Activity (MOLM-13 [18]): Active | inhibition in vivo at 10 mg/kg (MOLM-13 [19]): 55.3% | Activity [20]: Non-Toxic | Activity [21]: Non-Toxic

O=C(CCCCCCC(=O)Nc1ccccc1)NO [VORINOSTAT]
Activity [22]: Non-Toxic | IC50 at 48 h [3]: 2210 nM | Activity (MOLM-13 [4]): 83% | Activity (MOLM-13 [5]): 14.8% | Activity (MOLM-13 [6]): 2.01% | Activity (MOLM-13 [7]): 0.18% | Activity (MOLM-13 [23]): 46.8% | Activity (MOLM-13 [24]): 35% | Activity (MOLM-13 [25]): 17.4% | Activity (MOLM-13 [26]): 0.88% | Activity (MOLM-13 [12]): 49.16% | Activity (MOLM-13 [13]): 7.58% | Activity (MOLM-13 [14]): 43.26% | Activity (MOLM-13 [27]): 64.51% | Activity (MOLM-13 [28]): 7.24% | Activity (MOLM-13 [29]): 28.26% | Activity [30]: Non-Toxic | Activity [31]: Non-Toxic
